Assay: Partition coefficient (logP)
Format: physicochemical
Conditions: octanol/water

Row | logP | SMILES
1 | 2.89 | CCCCc1nc2[nH]cnc2c2nc(-c3cccnc3)nn12
2 | 5.15 | CCCCc1nc2[nH]cnc2c2nc(-c3ccc(C(F)(F)F)cc3)nn12
3 | 4.92 | CCCCc1nc2[nH]cnc2c2nc(-c3ccc(OCCC)cc3)nn12
4 | 4.33 | CCCCc1nc2[nH]cnc2c2nc(Cc3ccccc3)nn12
5 | 5.9 | CCCCc1nc2nc[nH]c2c2nc(-c3ccc(-c4ccccc4)cc3)nn12
6 | 4.71 | CCCCc1nc2[nH]cnc2c2nc(-c3ccc(C)cc3)nn12
7 | 4.44 | CCCCc1nc2nc[nH]c2c2nc(-c3ccc(OCC)cc3)nn12
8 | 3.81 | CCCc1nc2nc[nH]c2c2nc(-c3ccccc3)nn12
9 | 2.57 | CCCCc1nc2[nH]cnc2c2nc(C)nn12
10 | 5.06 | CCCCCCc1nc2nc[nH]c2c2nc(-c3ccccc3)nn12
11 | 4.23 | CCCCc1nc2[nH]cnc2c2nc(-c3ccccc3)nn12
12 | 2.84 | CCCCc1nc2[nH]cnc2c2nc(-c3ccco3)nn12
13 | 3.85 | CCCCc1nc2[nH]cnc2c2nc(-c3cc(OC)c(OC)c(OC)c3)nn12
14 | 3.39 | CCc1nc2[nH]cnc2c2nc(-c3ccccc3)nn12
15 | 4.38 | CCCCc1nc2nc[nH]c2c2nc(-c3ccc(F)cc3)nn12
16 | 4.64 | CCCCCc1nc2nc[nH]c2c2nc(-c3ccccc3)nn12
17 | 5.93 | CCCCc1nc2[nH]cnc2c2nc(-c3ccc(C(C)(C)C)cc3)nn12
18 | 5.05 | CCCCc1nc2nc[nH]c2c2nc(-c3ccc(Br)cc3)nn12
19 | 4.1 | CCCCc1nc2[nH]cnc2c2nc(-c3cccc(OC)c3)nn12
20 | 4.51 | CCCCc1nc2[nH]cnc2c2nc(-c3ccc(N(C)C)cc3)nn12
21 | 4.71 | CCCCc1nc2[nH]cnc2c2nc(-c3cccc(C)c3)nn12
22 | 4.78 | CCCCc1nc2nc[nH]c2c2nc(-c3cccc(Cl)c3)nn12
23 | 4.2 | c1ccc(-c2nc3c4nc[nH]c4nc(-c4ccccc4)n3n2)cc1
24 | 4.66 | CCCCc1nc2nc[nH]c2c2nc(-c3ccc(SC)cc3)nn12
25 | 4.78 | CCCCc1nc2nc[nH]c2c2nc(-c3ccc(Cl)cc3)nn12
26 | 4.78 | CCCCc1nc2nc[nH]c2c2nc(-c3ccccc3Cl)nn12
27 | 4.1 | CCCCc1nc2[nH]cnc2c2nc(-c3ccc(OC)cc3)nn12
28 | 3.84 | CCCCc1nc2nc[nH]c2c2nc(-c3ccc(O)cc3)nn12
29 | 2.82 | Cc1nc2[nH]cnc2c2nc(-c3ccccc3)nn12

Source: ChEMBL document CHEMBL1146798, “QSAR of adenosine receptor antagonists. Part 3: Exploring physicochemical requirements for selective binding of 1,2,4-triazolo[5,1-i]purine derivatives with human adenosine A3 receptor subtype” (Bioorg Med Chem Lett, 2004)
